pIC50: −log10 of the molar value.
How the values were obtained:
[1] = test system: LNCaP cells; assay: Cellular proliferation assay (alamarBlue) LNCaP; format: cell-based; settings: Homo sapiens, 168 hours, read-out: Prostate LNCaP IC50
Description: (§1) In accordance with the invention, the ability of the substances to inhibit the proliferation of various cell lines was determined. Cell viability was determined by means of the alamarBlue® reagent (Invitrogen). […] After incubation overnight at 37° C., the fluorescence values were determined (CI values). […] Then the fluorescence values were determined (CO values).
(§2) The substances were investigated in the cell lines in Table 1, which for example represent the stated indications: […]

[2] = target: T1, BRD4(1) (Homo sapiens, UniProt O60885); assay: Binding assay BRD4/acetylated peptide H4 (TR-FRET/HTRF protein-protein interaction assay); settings: inhibition of interaction BRD4(1) / acetylated histone H4 peptide, TR-FRET
T1 construct: BRD4(1) (amino acids 44-168); made in house; host or cells: E. coli
Excerpt: Binding Assay BRD4/Acetylated Peptide H4 (“PRQ”)
To assess the BRD4 binding strength of the substances described in this application, their capacity for dose-dependent inhibition of the interaction between BRD4 and acetylated histone H4 was quantified.
For this purpose, a time-resolved fluorescence resonance energy transfer (TR-FRET) assay was used, which measures the binding between N-terminally His6-tagged BRD4(1) (amino acids 44-168) and a synthetic acetylated histone H4 (Ac-H4) peptide with the sequence GRGK(Ac)GGK(Ac)GLGK(Ac)GGAK(Ac)RHGSGSK-biotin. The recombinant BRD4 protein (produced in-house) was expressed in E. coli and was purified by (Ni-NTA) affinity chromatography and (Sephadex G-75) size-exclusion chromatography. The Ac-H4 peptide can be purchased for example from Biosyntan (Berlin, Germany).
In the assay, typically 11 different concentrations of each substance (0.1 nM, 0.33 nM, 1.1 nM, 3.8 nM, 13 nM, 44 nM, 0.15 μM, 0.51 μM, 1.7 μM, 5.9 μM and 20 μM) were measured as duplicates on the same microtitre plate. For this, 100-fold concentrated solutions in DMSO were prepared by serial dilutions (1:3.4) of a 2 mM stock solution in a clear, 384-well microtitre plate (Greiner Bio-One, Frickenhausen, Germany). From this, 50 nl was transferred to a black assay plate (Greiner Bio-One, Frickenhausen, Germany). The assay was started by supplying 2 μl of a 2.5-fold concentrated BRD4 solution (usually 10 to 50 nM final concentration in the 5 μl of the reaction volume) in aqueous assay buffer [50 mM HEPES pH 7.5, 50 mM sodium chloride (NaCl), 0.25 mM CHAPS and 0.05% serum albumin (BSA)] to the substances in the assay plate. This was followed by a 10-minute incubation step at 22° C. for the pre-equilibration of putative complexes between BRD4 and the substances.
The mixture was then incubated in the dark for one hour at 22° C. and then overnight at 4° C. The formation of BRD4/Ac-H4 complexes was determined by measuring the resonance energy transfer from the streptavidin-Eu-cryptate to the anti-6His-XL665 antibody that is present in the reaction. For this, the fluorescence emissions at 620 nm and 665 nm were measured after excitation at 330-350 nm in a TR-FRET measuring instrument, e.g. a Rubystar or Pherastar (both from BMG Lab Technologies, Offenburg, Germany) or a Viewlux (Perkin-Elmer). The ratio of the emissions at 665 nm and at […] was taken as an indicator of the amount of BRD4/Ac-H4 complexes formed.
The data obtained (ratio) were normalized, wherein 0% inhibition corresponded to the mean value from the measured values of a set of controls (usually 32 data points), in which all reagents were contained. 50 nl DMSO (100%) was used instead of test substances. Inhibition of 100% corresponded to the mean value from the measured values of a set of controls (usually 32 data points), in which all reagents except BRD4 were contained. The IC50 value was determined by regression analysis based on a 4-parameter equation (minimum, maximum, IC50, Hill; Y=Max+(Min−Max)/(1+(X/IC50)^Hill)) using Bayer's own analysis software.

[3] = test system: MOLM-13 cells; assay: Cellular proliferation assay (alamarBlue) MOLM-13; format: cell-based; settings: Homo sapiens, 96 hours, read-out: Leukaemia MOLM-13 IC50
Description: as §1, §2

[4] = test system: VCaP cells; assay: Cellular proliferation assay (alamarBlue) VCaP; format: cell-based; settings: Homo sapiens, 168 hours, read-out: Prostate VCaP IC50
Description: as §1, §2

[5] = test system: MDA-MB-231 cells; assay: Cellular proliferation assay (alamarBlue) MDA-MB-231; format: cell-based; settings: Homo sapiens, 96 hours, read-out: Breast MDA-MB-231 IC50
Description: as §1, §2

[6] = test system: LAPC-4 cells; assay: Cellular proliferation assay (alamarBlue) LAPC-4; format: cell-based; settings: Homo sapiens, LAPC4, 168 hours, read-out: Prostate LAPC-4 IC50
Description: as §1, §2

[7] = test system: B16F10 cells; assay: Cellular proliferation assay (alamarBlue) B16F10; format: cell-based; settings: Mus musculus, B16-F10, 96 hours, read-out: Melanoma B16F10 IC50
Description: as §1, §2

[8] = test system: HeLa-MaTu cells; assay: Cellular proliferation assay (alamarBlue) HeLa-MaTu; format: cell-based; settings: 96 hours, read-out: Cervix HeLa-MaTu IC50
Description: as §1, §2

[9] = test system: MCF-7 cells; assay: Cellular proliferation assay (alamarBlue) MCF-7; format: cell-based; settings: Homo sapiens, MCF7, 96 hours, read-out: Breast MCF-7 IC50
Description: as §1, §2

[10] = test system: MOLP-8 cells; assay: Cellular proliferation assay (alamarBlue) MOLP-8; format: cell-based; settings: Homo sapiens, 120 hours, read-out: Multiple myeloma MOLP-8 IC50
Description: as §1, §2

SMILES | pIC50 [1] | pIC50 [2] | pIC50 [3] | pIC50 [4] | pIC50 [5] | pIC50 [6] | pIC50 [7] | pIC50 [8] | pIC50 [9] | pIC50 [10]
Cc1sc2c(c1C)C(c1ccc(Cl)cc1)=N[C@@H](CC(=O)NC1C[C@H]3CCC[C@@H](C1)N3C(=O)OC(C)(C)C)c1nnc(C)n1-2 (stereo partly drawn) [Example 3, (1R,5S)-tert-Butyl-3-({2-[(S)-4-(4-chlorophenyl)-2,3,9-trimethyl-6H-thieno[3,2-f][1,2,4]triazolo[4,3-a][1,4]diazepin-6-yl]acetyl}amino)-9-azabicyclo[3.3.1]nonane-9-carboxylate] | 7.77 | 6.62 | 7.08 | 7.19 | 6.89 | 7.39 | 7.54 | 7.40 | 7.70 | 6.77
Cc1sc2c(c1C)C(c1ccc(Cl)cc1)=N[C@@H](CC(=O)N1CC3CCC(C1)O3)c1nnc(C)n1-2 [Example 5, 2-[(S)-4-(4-Chlorophenyl)-2,3,9-trimethyl-6H-thieno[3,2-f][1,2,4]triazolo[4,3-a][1,4]diazepin-6-yl]-1-(8-oxa-3-azabicyclo[3.2.1]oct-3-yl)ethan-1-one] | 7.40 | 7.11 | 6.90 | 7.17 | 6.86 | 7.19 | 7.04 | 6.48 | 7.03 | 6.92
Cc1sc2c(c1C)C(c1ccc(Cl)cc1)=N[C@@H](CC(=O)N1CCC3(CC1)COC3)c1nnc(C)n1-2 [Example 7] | 6.99 | 7.49 | 7.17 | 7.46 | 7.16 | 7.49 | 7.32 | 6.78 | 7.23 | 7.29
Cc1sc2c(c1C)C(c1ccc(Cl)cc1)=N[C@@H](CC(=O)NC1C[C@H]3CCC[C@@H](C1)N3)c1nnc(C)n1-2 (stereo partly drawn) [Example 4, N-[(1R,5S)-9-Azabicyclo[3.3.1]non-3-yl]-2-[(S)-4-(4-chlorophenyl)-2,3,9-trimethyl-6H-thieno[3,2-f][1,2,4]triazolo[4,3-a][1,4]diazepin-6-yl]acetamide] | 6.45 | 7.82 | 7.24 | 7.15 | 6.22 | 6.64 | 5.98 | 6.12 | 6.52 | 6.62
Cc1sc2c(c1C)C(c1ccc(Cl)cc1)=N[C@@H](CC(=O)N1CC3CCC1CC3)c1nnc(C)n1-2 [Example 8, (S)-1-(2-Azabicyclo[2,2,2]oct-2-yl)-2-[(6S)-4-(4-chlorophenyl)-2,3,9-trimethyl-6H-thieno[3,2-j][1,2,4]triazolo[4,3-a][1,4]diazepin-6-yl]ethanone] | – | 7.08 | 5.97 | – | 6.44 | 6.88 | 6.53 | – | – | –
Cc1sc2c(c1C)C(c1ccc(Cl)cc1)=N[C@@H](CC(=O)N1C3CCC1CC3)c1nnc(C)n1-2 [Example 9, (S)-1-(7-Azabicyclo[2.2.1]hept-7-yl)-2-[(6S)-4-(4-chlorophenyl)-2,3,9-trimethyl-6H-thieno[3,2-f][1,2,4]triazolo[4,3-a][1,4]diazepin-6-yl]ethanone] | – | 7.12 | 6.08 | – | 6.54 | 7.06 | 6.38 | – | – | –
Cc1sc2c(c1C)C(c1ccc(Cl)cc1)=N[C@@H](CC(=O)N1CCC3(COC3)C1)c1nnc(C)n1-2 [Example 6, 2-[(S)-4-(4-Chlorophenyl)-2,3,9-trimethyl-6H-thieno[3,2-f][1,2,4]triazolo[4,3-a][1,4]diazepin-6-yl]-1-(2-oxa-6-azaspiro[3.4]oct-6-yl)ethan-1-one] | 7.44 | 7.54 | 6.88 | 7.19 | 6.91 | 7.14 | 7.06 | 6.60 | 7.01 | 6.96

Source: US20140213575A1, “6H-Thieno[3,2-f][1,2,4]triazolo[4,3-a][1,4]diazepines” (BAYER INTELLECTUAL PROPERTY GMBH, priority 2011, published 2014)
